Consider 1 substance from patent publication US6528455B1, “Phenoxy-and thiophenoxy acrylic acid compounds as herbicides” (BASF Aktiengesellschaft, priority 1999, dated 2003).

In the assay the test system is dicotyledonous harmful plants (ABUTH, AMARE, IPOSS, SOLNI). Briefly: Greenhouse experiment, post-emergence treatment: herbicidal action. Type of assay: in vivo. The note with it: application rates of 3.9 and 1.95 g/ha of a.s., 2 to 4 weeks. An excerpt:
The test period extended over 2 to 4 weeks.

For “3-(4-Chloro-2-fluoro-5-(1-methoxycarbonyl-1-vinyloxy)phenyl)-1-methyl-6-trifluoromethyl-2,4-(1H, 3H)pyrimidinedione [Example 2]”, the “herbicidal effect on dicotyledonous harmful plants compared with Comparative Example A” value was “at least as good a herbicidal effect”.
